The nature of assay [1]: Modulation of calcium release-activated calcium channel in mitomycin C-stimulated human PBMC assessed as [3H]thymidine incorporation after 4 days by topcount scintillation counting analysis. (In general: Dividing cells build labelled thymidine or BrdU into new DNA.)
Assay [2] in a line: Modulation of calcium release-activated calcium channel in human whole blood T cells assessed as inhibition of thapsigargin-stimulated IL2 production incubated 30 mins prior to thapsigargin-challenge measured after overnight incubation by AlphaLISA IL-2 assay. The format is cell-based. Conditions: T-cell. (In Alpha technology, singlet oxygen from a donor bead excites a nearby acceptor bead.)

Assay [3] can be described thus: Modulation of calcium release-activated calcium channel in human jurkat cells assessed as inhibition of PHA/PMA/ionomycin-stimulated IL2 production incubated 10 mins prior to PHA/PMA/ionomycin-challenge measured after 18 to 20 hrs. The format is cell-based.

The IC50 is the concentration at which inhibition is half-maximal.

Take `CCn1nc(-c2cccnc2)cc1-c1ccc2c(c1)OCC(c1c(F)cccc1F)N2` (stereo not drawn): the values for the concentration for half-maximal inhibition (IC50) in assay [1], in assay [2] and in assay [3] were 330 nM, 320 nM and 70 nM, respectively.

With `Cc1sc(-c2cccnc2)nc1-c1ccc2c(c1)OCC(c1c(F)cccc1F)N2` (stereo not drawn), the IC50 in assay [1] came out at 190 nM; in assay [2], 430 nM; in assay [3], 30 nM.

Regarding `CCc1sc(-c2cccnc2)nc1-c1ccc2c(c1)OCC(c1c(F)cccc1F)N2` (stereo not drawn), the 50% inhibitory concentration (IC50) in assay [1] is 100 nM; in assay [2] it was 520 nM; in assay [3], 30 nM.

Turning to `CCc1sc(-c2cnccn2)nc1-c1ccc2c(c1)OCC(c1c(F)cccc1F)N2` (stereo not drawn), the 50% inhibitory concentration (IC50) in assay [1] turned out to be 180 nM; in assay [2], 870 nM; in assay [3], 20 nM.

Take `CCc1sc(-c2ccncc2)nc1-c1ccc2c(c1)OCC(c1c(F)cccc1F)N2` (stereo not drawn): the IC50 in assay [1] is 440 nM; in assay [2], 320 nM; in assay [3], 20 nM.

Regarding `CCc1sc(-c2cc(C)on2)nc1-c1ccc2c(c1)OCC(c1c(F)cccc1F)N2` (stereo not drawn), the concentration for half-maximal inhibition (IC50) amounted to 430 nM in assay [1], 360 nM in assay [2] and 30 nM in assay [3].

The record behind these values is ChEMBL document CHEMBL3091425, “Benzoxazine Derivatives As CRAC Modulators” (ACS Med Chem Lett, 2013).
